These results are taken from PubChem BioAssay AID1745844 (Carcinogenic Potency Database (CPDB), 2022).

SMILES strings stand for the structures. The source made the active and inactive calls. The rule behind the calls is not given here.

In this data set the test system is rodent lifetime carcinogenesis bioassay, tumor incidence TD50. Put plainly: chronic cancer bioassays in animals – CPDB, compiled studies (AID 1745844).
The mark [1] stands for this setting: mouse, strain B6AKF1, females, oral dosing, site: any site (literature study), lesion: several types, types named in the paper, dosed 76 weeks, study length 76 weeks.
Setting [2] is: mouse, strain B6AKF1, males, oral dosing, site: any site (literature study), lesion: several types, types named in the paper, dosed 76 weeks, study length 76 weeks.
The mark [3] stands for this setting: mouse, strain B6AKF1, males, oral dosing, site: liver, lesion: hepatoma, dosed 76 weeks, study length 76 weeks.
Where [4] appears, read: mouse, strain B6C3F1, females, oral dosing, site: any site (literature study), lesion: several types, types named in the paper, dosed 76 weeks, study length 76 weeks.
The mark [5] stands for this setting: mouse, strain B6C3F1, males, oral dosing, site: any site (literature study), lesion: several types, types named in the paper, dosed 76 weeks, study length 76 weeks.
[6] abbreviates: mouse, strain B6C3F1, males, oral dosing, site: liver, lesion: hepatoma, dosed 76 weeks, study length 76 weeks.

As a reminder, the TD50 is the 50% point of the dose-response relation for the toxic effect studied. With `O=CNc1nc(-c2ccc([N+](=O)[O-])o2)cs1`, the TD50 was 83.8 mg/kg/day (hamster, strain Syrian Golden, males, in feed, site: forestomach, lesion: squamous-cell papilloma, dosed 48 weeks, study length 70 weeks); 54 mg/kg/day (hamster, strain Syrian Golden, males, in feed, site: urinary bladder, lesion: squamous-cell carcinoma, dosed 48 weeks, study length 70 weeks); 18.7 mg/kg/day (mouse, strain Charles River CD1, females, in feed, site: any site (literature study), lesion: several types, types named in the paper, dosed 36 weeks, study length 68 weeks); 1120 mg/kg/day (mouse, strain Charles River CD1, females, in feed, site: lung, lesion: adenoma, dosed 36 weeks, study length 68 weeks); 128 mg/kg/day (mouse, strain Charles River CD1, females, in feed, site: urinary bladder, lesion: spindle-cell tumor, dosed 36 weeks, study length 68 weeks); 128 mg/kg/day (mouse, strain Charles River CD1, females, in feed, site: urinary bladder, lesion: squamous-cell carcinoma, dosed 36 weeks, study length 68 weeks). The TD50 is 33.3 mg/kg/day (mouse, strain Charles River CD1, females, in feed, site: urinary bladder, lesion: transitional-cell carcinoma, dosed 36 weeks, study length 68 weeks); 21.5 mg/kg/day (mouse, strain Charles River CD1, males, in feed, site: any site (literature study), lesion: several types, types named in the paper, dosed 40 weeks, study length 77 weeks); 97.1 mg/kg/day (mouse, strain Charles River CD1, males, in feed, site: urinary bladder, lesion: spindle-cell tumor, dosed 40 weeks, study length 77 weeks); 250 mg/kg/day (mouse, strain Charles River CD1, males, in feed, site: urinary bladder, lesion: squamous-cell carcinoma, dosed 40 weeks, study length 77 weeks); 30.5 mg/kg/day (mouse, strain Charles River CD1, males, in feed, site: urinary bladder, lesion: transitional-cell carcinoma, dosed 40 weeks, study length 77 weeks); 69.4 mg/kg/day (mouse, strain NMRI, females, by gavage, site: any site (literature study), lesion: benign tumor, dosed 68 weeks, study length 75 weeks). Besides, the TD50 is, setting by setting: (mouse, strain NMRI, females, by gavage, site: any site (literature study), lesion: malignant tumor, dosed 68 weeks, study length 75 weeks) 59.5 mg/kg/day; (mouse, strain NMRI, females, by gavage, site: forestomach, lesion: papilloma, dosed 68 weeks, study length 75 weeks) 164 mg/kg/day; (mouse, strain NMRI, females, by gavage, site: forestomach, lesion: squamous-cell carcinoma, dosed 68 weeks, study length 75 weeks) 139 mg/kg/day; (mouse, strain NMRI, females, by gavage, site: liver, lesion: malignant tumor, dosed 68 weeks, study length 75 weeks) 2390 mg/kg/day; (mouse, strain NMRI, females, by gavage, site: stomach, glandular, lesion: malignant tumor, dosed 68 weeks, study length 75 weeks) 944 mg/kg/day; (mouse, strain Swiss, females, in feed, site: all sites, lesion: leukemia, dosed 33 weeks, study length 52 weeks) 47.6 mg/kg/day. The TD50 runs as follows: (mouse, strain Swiss, females, in feed, site: all sites, lesion: leukemia, dosed 46 weeks, study length 53 weeks) 55.4 mg/kg/day; (mouse, strain Swiss, females, in feed, site: all sites, lesion: lymphocytic leukemia, dosed 46 weeks, study length 66 weeks) 78.3 mg/kg/day; (mouse, strain Swiss, females, in feed, site: forestomach, lesion: squamous-cell papilloma, dosed 46 weeks, study length 66 weeks) 235 mg/kg/day; (mouse, strain Swiss, females, in feed, site: lung, lesion: alveolar-cell adenoma, dosed 33 weeks, study length 52 weeks) 208 mg/kg/day; (mouse, strain Swiss, females, in feed, site: lung, lesion: alveolar-cell carcinoma, dosed 46 weeks, study length 66 weeks) 86.4 mg/kg/day; (mouse, strain Swiss, females, in feed, site: lung, lesion: carcinoma, dosed 46 weeks, study length 53 weeks) 163 mg/kg/day. Also, the TD50 (mouse, strain Swiss, females, in feed, site: urinary bladder, lesion: carcinoma, dosed 33 weeks, study length 52 weeks) was 19.8 mg/kg/day; the TD50 (mouse, strain Swiss, females, in feed, site: urinary bladder, lesion: one or several types, types not named, dosed 46 weeks, study length 53 weeks) was 18.2 mg/kg/day; the TD50 (mouse, strain Swiss, females, in feed, site: urinary bladder, lesion: transitional-cell carcinoma, dosed 46 weeks, study length 66 weeks) was 7.72 mg/kg/day; the TD50 (rat, strain Fischer 344, males, in feed, site: urinary bladder, lesion: carcinoma, dosed 30 weeks, study length 104 weeks) is 3.18 mg/kg/day; the TD50 (rat, strain Fischer 344, males, in feed, site: urinary bladder, lesion: papillary carcinoma, dosed 30 weeks, study length 52 weeks) amounted to 5.92 mg/kg/day; the TD50 (rat, strain Fischer 344, males, in feed, site: urinary bladder, lesion: several types, types named in the paper, dosed 30 weeks, study length 52 weeks) was 1.31 mg/kg/day. The TD50 was 263 mg/kg/day (rat, strain Fischer, males, in feed, site: liver, lesion: hyperplastic nodule, dosed 36 weeks, study length 74 weeks); 9.74 mg/kg/day (rat, strain Fischer, males, in feed, site: urinary bladder, lesion: carcinoma, invasive, dosed 36 weeks, study length 74 weeks); 18.1 mg/kg/day (rat, strain Fischer, males, in feed, site: urinary bladder, lesion: carcinoma, invasive, dosed 77 weeks, study length 77 weeks); 60.5 mg/kg/day (rat, strain Fischer, males, in feed, site: urinary bladder, lesion: carcinoma, noninvasive, dosed 36 weeks, study length 74 weeks); 195 mg/kg/day (rat, strain Fischer, males, in feed, site: urinary bladder, lesion: carcinoma, noninvasive, dosed 77 weeks, study length 77 weeks); 4.51 mg/kg/day (rat, strain Fischer, males, in feed, site: urinary bladder, lesion: carcinoma, dosed 36 weeks, study length 74 weeks). Besides, the TD50 is 9.87 mg/kg/day (rat, strain Fischer, males, in feed, site: urinary bladder, lesion: carcinoma, dosed 77 weeks, study length 77 weeks); 48.6 mg/kg/day (rat, strain Sprague-Dawley, females, in feed, site: urinary bladder, lesion: papillary carcinoma, dosed 26 weeks, study length 70 weeks); 82.7 mg/kg/day (rat, strain Sprague-Dawley, females, in feed, site: urinary bladder, lesion: papillary carcinoma, dosed 46 weeks, study length 70 weeks); 5.07 mg/kg/day (rat, strain Sprague-Dawley, females, in feed, site: urinary bladder, lesion: several types, types named in the paper, dosed 46 weeks, study length 63 weeks). Moreover, the carcinogen call was “positive” (hamster, strain Syrian Golden, males, in feed, site: urinary bladder, lesion: several types, types named in the paper, dosed 48 weeks, study length 70 weeks); “positive” (rat, strain Fischer, males, in feed, site: urinary bladder, lesion: carcinoma, dosed 72 weeks, study length 72 weeks); “positive” (rat, strain Sprague-Dawley, females, in feed, site: urinary bladder, lesion: several types, types named in the paper, dosed 26 weeks, study length 70 weeks); “positive” (rat, strain Sprague-Dawley, females, in feed, site: urinary bladder, lesion: several types, types named in the paper, dosed 46 weeks, study length 70 weeks); “positive” (rat, strain Sprague-Dawley, females, in feed, site: urinary bladder, lesion: transitional-cell carcinoma, dosed 26 weeks, study length 70 weeks); “positive” (rat, strain Sprague-Dawley, females, in feed, site: urinary bladder, lesion: transitional-cell carcinoma, dosed 46 weeks, study length 70 weeks). For the same compound, the carcinogen call runs as follows: (rat, strain Sprague-Dawley, males, in feed, site: urinary bladder, lesion: transitional-cell carcinoma, dosed 26 weeks, study length 52 weeks) “positive”; (rat, strain Sprague-Dawley, males, in feed, site: urinary bladder, lesion: transitional-cell carcinoma, dosed 46 weeks, study length 52 weeks) “positive”; (rat, strain Wistar, females, in feed, site: urinary bladder, lesion: transitional-cell carcinoma, dosed 34 weeks, study length 52 weeks) “positive”.
As for `Cn1cc[nH]c1=S`, the TD50 runs as follows: (rat, strain Harlan, females, in feed, site: thyroid gland, lesion: follicular adenocarcinoma, dosed 104 weeks, study length 104 weeks) 9.47 mg/kg/day; (rat, strain Harlan, females, in feed, site: thyroid gland, lesion: follicular-cell adenoma, dosed 104 weeks, study length 104 weeks) 1.57 mg/kg/day; (rat, strain Harlan, males, in feed, site: thyroid gland, lesion: follicular adenocarcinoma, dosed 104 weeks, study length 104 weeks) 37.6 mg/kg/day; (rat, strain Harlan, males, in feed, site: thyroid gland, lesion: follicular-cell adenoma, dosed 104 weeks, study length 104 weeks) 0.9 mg/kg/day.
Regarding `COc1ccccc1N1CCN(CCCNc2cc(=O)n(C)c(=O)n2C)CC1`, the carcinogen call by setting is: (rat, strain Slc-Wistar, females, by gavage, site: liver, lesion: one or several types, types not named, dosed 52 weeks, study length 52 weeks) “negative (inactive)”; (rat, strain Slc-Wistar, males, by gavage, site: liver, lesion: one or several types, types not named, dosed 52 weeks, study length 52 weeks) “negative (inactive)”.
As for `C[N+](C)(C)CCCl`, the TD50 is 33.5 mg/kg/day under setting [1]; 21.3 mg/kg/day under setting [2]; 11.4 mg/kg/day under setting [3]; 57.4 mg/kg/day under setting [4]; 3240 mg/kg/day (inactive) (mouse, strain B6C3F1, males, in feed, site: any site (literature study), lesion: several types, types named in the paper, dosed 102 weeks, study length 102 weeks); 599 mg/kg/day (mouse, strain B6C3F1, males, in feed, site: liver, lesion: hepatocellular adenoma + hepatocellular carcinoma + neoplastic nodule, dosed 102 weeks, study length 102 weeks). For the same compound, the TD50 was 5.19 mg/kg/day under setting [5]; 9.38 mg/kg/day under setting [6]; 8090 mg/kg/day (rat, strain Fischer 344, females, in feed, site: liver, lesion: hepatocellular adenoma + hepatocellular carcinoma + neoplastic nodule, dosed 108 weeks, study length 108 weeks); 3360 mg/kg/day (rat, strain Fischer 344, males, in feed, site: any site (literature study), lesion: several types, types named in the paper, dosed 108 weeks, study length 108 weeks); 458 mg/kg/day (inactive) (rat, strain Fischer 344, males, in feed, site: pancreatic islets, lesion: islet-cell adenoma, dosed 108 weeks, study length 108 weeks). Also, the carcinogen call is, setting by setting: (mouse, strain B6C3F1, females, in feed, site: any site (literature study), lesion: several types, types named in the paper, dosed 102 weeks, study length 102 weeks) “negative (inactive)”; (rat, strain Fischer 344, females, in feed, site: any site (literature study), lesion: several types, types named in the paper, dosed 108 weeks, study length 108 weeks) “negative (inactive)”.
`NC(=O)Cc1cccc2ccccc12`: the TD50 is 956 mg/kg/day (inactive) under setting [1]; 213 mg/kg/day (inactive) under setting [4]; 956 mg/kg/day (inactive) (mouse, strain B6C3F1, females, oral dosing, site: liver, lesion: hepatoma, dosed 76 weeks, study length 76 weeks); 461 mg/kg/day (inactive) (mouse, strain B6C3F1, females, oral dosing, site: lung, lesion: adenoma, dosed 76 weeks, study length 76 weeks); 141 mg/kg/day (inactive) under setting [5]; 316 mg/kg/day (inactive) under setting [6]. Under “mouse, strain B6C3F1, males, oral dosing, site: lung, lesion: adenoma, dosed 76 weeks, study length 76 weeks”, the TD50 is 1010 mg/kg/day (inactive). Moreover, the carcinogen call was “negative (inactive)” (mouse, strain B6AKF1, females, oral dosing, site: liver, lesion: hepatoma, dosed 76 weeks, study length 76 weeks); “negative (inactive)” (mouse, strain B6AKF1, females, oral dosing, site: lung, lesion: adenoma, dosed 76 weeks, study length 76 weeks); “negative (inactive)” under setting [2]; “negative (inactive)” under setting [3]; “negative (inactive)” (mouse, strain B6AKF1, males, oral dosing, site: lung, lesion: adenoma, dosed 76 weeks, study length 76 weeks).
On to `CC(=O)Nc1ccc2c(c1)Cc1cc(NC(C)=O)ccc1-2`, for which the TD50 (monkey, strain Cynomolgus [Macaca fascicularis], both sexes, in feed, site: breast, lesion: carcinoma, dosed 258 weeks, study length 1513 weeks) turned out to be 307 mg/kg/day and the TD50 (monkey, strain Cynomolgus [Macaca fascicularis], both sexes, in feed, site: lung, lesion: alveolar/bronchiolar carcinoma, dosed 258 weeks, study length 1513 weeks) is 25.6 mg/kg/day.
